The target in assay [1] is Carbonic anhydrase 2 (Homo sapiens, UniProt P00918).
Description: Inhibition of human recombinant carbonic anhydrase 2 pretreated for 15 mins by stopped flow CO2 hydrase assay
Assay [2] has as its target Carbonic anhydrase 12 (Homo sapiens, UniProt O43570).
Description: Inhibition of human recombinant carbonic anhydrase 12 pretreated for 15 mins by stopped flow CO2 hydrase assay
Assay [3] concerns the target T1, Carbonic anhydrase 1 (Homo sapiens, UniProt P00915).
Target sequence in this assay (P00915 whole entry): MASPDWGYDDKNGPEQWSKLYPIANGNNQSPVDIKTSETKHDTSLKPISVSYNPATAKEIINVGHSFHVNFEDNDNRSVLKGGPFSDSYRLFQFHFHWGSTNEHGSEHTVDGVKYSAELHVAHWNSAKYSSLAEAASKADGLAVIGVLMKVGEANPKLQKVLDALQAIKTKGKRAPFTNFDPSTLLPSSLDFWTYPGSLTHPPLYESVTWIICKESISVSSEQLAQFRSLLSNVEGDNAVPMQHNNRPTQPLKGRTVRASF
Description: Inhibition of human recombinant carbonic anhydrase 1 pretreated for 15 mins by stopped flow CO2 hydrase assay
Assay [4] deals with 72 kDa type IV collagenase (Homo sapiens, UniProt P08253).
Assay [5] has as its target Carbonic anhydrase 9 (Homo sapiens, UniProt Q16790).
Description: Inhibition of human recombinant carbonic anhydrase 9 pretreated for 15 mins by stopped flow CO2 hydrase assay
Assay [6] concerns the target Carbonic anhydrase 14 (Homo sapiens, UniProt Q9ULX7).
Description: Inhibition of human recombinant carbonic anhydrase 14 pretreated for 15 mins by stopped flow CO2 hydrase assay
For assay [7], the system named is J774. The experiment in a line: Cytotoxicity against mouse J774 cells assessed as reduction in cell viability. Format: functional, cell-based.
The target of assay [8] is T1, Carbonic anhydrase 1. Description: Activation of human recombinant carbonic anhydrase 1 pretreated for 15 mins by stopped flow CO2 hydrase assay.
Target sequence in this assay (P00915 2-261 limits assumed): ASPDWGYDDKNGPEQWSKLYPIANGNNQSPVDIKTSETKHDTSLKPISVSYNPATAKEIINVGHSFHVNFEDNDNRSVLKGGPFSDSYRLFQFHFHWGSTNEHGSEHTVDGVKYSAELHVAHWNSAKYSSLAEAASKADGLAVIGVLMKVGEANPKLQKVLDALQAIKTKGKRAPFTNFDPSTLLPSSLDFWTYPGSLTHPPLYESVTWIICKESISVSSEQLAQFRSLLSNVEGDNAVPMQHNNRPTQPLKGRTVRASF

pIC50: −log10 of the molar value. Active and inactive are the calls of the source. The calls are words filed in the database; no cut-off is given here.

What is called pIC50 is the IC50 on a negative log10 scale, so that one unit is a factor of ten.

Sequence of Carbonic anhydrase 14 (Q9ULX7 whole entry): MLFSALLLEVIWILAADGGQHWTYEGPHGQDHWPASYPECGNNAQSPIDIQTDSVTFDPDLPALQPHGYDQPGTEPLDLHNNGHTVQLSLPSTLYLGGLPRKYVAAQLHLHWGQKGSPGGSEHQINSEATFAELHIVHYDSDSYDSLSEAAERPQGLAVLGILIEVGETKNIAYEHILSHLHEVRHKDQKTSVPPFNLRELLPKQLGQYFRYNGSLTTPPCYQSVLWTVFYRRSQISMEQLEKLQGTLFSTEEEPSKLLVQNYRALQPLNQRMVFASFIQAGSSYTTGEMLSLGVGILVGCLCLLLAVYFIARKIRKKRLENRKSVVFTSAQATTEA
Sequence of 72 kDa type IV collagenase (P08253 whole entry): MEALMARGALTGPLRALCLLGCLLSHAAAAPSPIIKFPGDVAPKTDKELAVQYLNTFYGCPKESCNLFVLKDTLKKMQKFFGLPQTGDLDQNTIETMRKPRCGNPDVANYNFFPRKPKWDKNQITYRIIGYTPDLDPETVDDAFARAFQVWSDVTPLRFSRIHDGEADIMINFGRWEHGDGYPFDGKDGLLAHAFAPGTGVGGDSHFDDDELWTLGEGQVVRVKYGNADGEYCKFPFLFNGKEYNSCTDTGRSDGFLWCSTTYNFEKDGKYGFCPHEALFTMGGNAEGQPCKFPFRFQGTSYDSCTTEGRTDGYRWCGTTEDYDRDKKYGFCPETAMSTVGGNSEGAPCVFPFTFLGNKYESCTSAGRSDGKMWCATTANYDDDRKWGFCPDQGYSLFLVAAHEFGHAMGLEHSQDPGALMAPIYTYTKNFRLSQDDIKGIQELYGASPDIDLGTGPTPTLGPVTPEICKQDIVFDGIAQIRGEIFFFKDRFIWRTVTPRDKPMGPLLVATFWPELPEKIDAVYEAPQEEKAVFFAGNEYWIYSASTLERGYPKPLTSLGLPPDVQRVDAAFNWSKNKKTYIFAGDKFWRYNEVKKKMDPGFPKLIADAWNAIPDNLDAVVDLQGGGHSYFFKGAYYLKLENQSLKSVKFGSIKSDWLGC
Sequence of Carbonic anhydrase 12 (O43570 whole entry): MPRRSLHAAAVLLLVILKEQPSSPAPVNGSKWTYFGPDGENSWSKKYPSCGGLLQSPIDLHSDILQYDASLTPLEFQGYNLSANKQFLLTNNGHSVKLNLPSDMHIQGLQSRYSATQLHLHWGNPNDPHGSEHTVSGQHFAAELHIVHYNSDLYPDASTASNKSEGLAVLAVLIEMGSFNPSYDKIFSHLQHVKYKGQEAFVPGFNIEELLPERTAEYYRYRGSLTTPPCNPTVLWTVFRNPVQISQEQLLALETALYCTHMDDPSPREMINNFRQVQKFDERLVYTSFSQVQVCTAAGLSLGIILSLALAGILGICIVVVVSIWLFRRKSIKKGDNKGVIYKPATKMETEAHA

Take `O=P(O)(O)C(NS(=O)(=O)c1ccc(Br)cc1)P(=O)(O)O`: the pIC50 was less than 5.00 in assay [1]; 7.21 in assay [2]; less than 5.00 in assay [3]; 5.32 in assay [4]; 6.63 in assay [5]; 6.05 in assay [6].
Consider `O=P(O)(O)C(NS(=O)(=O)c1ccccc1)P(=O)(O)O`, for which the pIC50 was less than 4.00 in assay [1]; 6.07 in assay [2]; less than 5.00 in assay [3]; 4.80 in assay [4]; 6.40 in assay [5]; 5.48 in assay [6].
Regarding `O=P(O)(O)C(NS(=O)(=O)c1ccc(-c2ccccc2)cc1)P(=O)(O)O`, the negative logarithm of the IC50 (pIC50) is 5.85 in assay [1]; 6.41 in assay [2]; 5.17 in assay [3]; 6.46 in assay [5]; 6.14 in assay [6]; 5.31 in assay [7].
With `O=[N+]([O-])c1ccc(S(=O)(=O)NC(P(=O)(O)O)P(=O)(O)O)cc1`, the pIC50 in assay [1] is 5.74; in assay [2], 7.04; in assay [3], less than 5.00; in assay [4], 5.31; in assay [5] it was 7.11; in assay [6] it was 7.04.
Consider `O=P(O)(O)C(NS(=O)(=O)c1ccc(-c2ccc(Cl)cc2)cc1)P(=O)(O)O`, for which the pIC50 in assay [1] is 5.58; in assay [2], 6.32; in assay [3] it was 5.76; in assay [4], 7.43; in assay [5] it was 5.21; in assay [6], 5.61. The pIC50 in assay [7] was 5.77.
With `O=[N+]([O-])c1ccc(-c2ccc(S(=O)(=O)NC(P(=O)(O)O)P(=O)(O)O)cc2)cc1`, the pIC50 in assay [1] was 7.15; in assay [2], 7.19; in assay [3], 5.04; in assay [4], 6.72; in assay [5], 6.22; in assay [6] it was 7.09. The pIC50 in assay [7] is 4.49.
Regarding `O=[N+]([O-])c1cccc(S(=O)(=O)NC(P(=O)(O)O)P(=O)(O)O)c1`, the negative-log IC50 (pIC50) in assay [1] is 5.42; in assay [2], 6.10; in assay [3], less than 5.00; in assay [4] it was 4.80; in assay [5], 5.57; in assay [6], less than 5.00.
With `O=P(O)(O)C(P(=O)(O)O)S(=O)(=O)c1ccc(Br)cc1`, the pIC50 is less than 5.00 in assay [1]; 6.65 in assay [2]; less than 5.00 in assay [3]; 4.28 in assay [4]; less than 5.00 in assay [5]; 5.22 in assay [6].
Consider `O=P(O)(O)CP(=O)(O)O` [MEDRONIC ACID], for which the figures for the pIC50 in assay [1], in assay [4] and in assay [5] were 2.90, 4.31 and 3.07, respectively. The outcome in assay [8] was Active.
On to `COc1ccc(S(=O)(=O)NC(P(=O)(O)O)P(=O)(O)O)cc1`, for which the pIC50 in assay [1] is less than 5.00; in assay [2], 6.42; in assay [3] it was less than 5.00; in assay [4], 4.72; in assay [5], 7.05; in assay [6] it was 6.29.
For the compound `COc1ccc(-c2ccc(S(=O)(=O)NC(P(=O)(O)O)P(=O)(O)O)cc2)cc1`, the pIC50 in assay [1] was 7.15; in assay [2], 7.12; in assay [3] it was 7.39; in assay [4], 6.96; in assay [5], 7.08; in assay [6] it was 7.15. Moreover, in assay [7], the pIC50 was 4.92.
Take `O=C(NC(P(=O)(O)O)P(=O)(O)O)c1ccc(Br)cc1`: the pIC50 was less than 5.00 in assay [1]; 6.56 in assay [2]; less than 5.00 in assay [3]; 4.52 in assay [4]; less than 5.00 in assay [5]; 5.22 in assay [6].
On to `O=P(O)(O)C(O)(Cn1ccnc1)P(=O)(O)O` [ZOLEDRONIC ACID], for which the pIC50 in assay [3] is less than 5.00; in assay [7] it was 5.11.
For `O=P(O)(O)C(NS(=O)(=O)c1ccc(Cl)cc1)P(=O)(O)O`, the pIC50 in assay [1] is 5.21; in assay [2], 6.33; in assay [3], less than 5.00; in assay [4], 5.02; in assay [5] it was 7.02; in assay [6], 5.18.
Take `O=P(O)(O)C(NS(=O)(=O)c1ccc(-c2cccs2)cc1)P(=O)(O)O`: the negative logarithm of the IC50 (pIC50) in assay [1] was 6.30; in assay [2] it was 7.06; in assay [3], 5.21; in assay [4], 6.64; in assay [5], 6.22; in assay [6], 6.23. The pIC50 in assay [7] is 4.92.
With `Cc1ccc(S(=O)(=O)NC(P(=O)(O)O)P(=O)(O)O)cc1`, the negative-log IC50 (pIC50) in assay [1] was less than 4.00; in assay [2] it was 6.34; in assay [3], less than 5.00; in assay [4], 4.74; in assay [5] it was 6.70; in assay [6], 6.27.

These data come from ChEMBL document CHEMBL3286097, “Dual carbonic anhydrase/matrix metalloproteinase inhibitors incorporating bisphosphonic acid moieties targeting bone tumors” (Bioorg Med Chem Lett, 2014).
